Measurements reported in patent publication US5516525A, “Vitamin D derivative feed compositions and methods of use” (University of Georgia Research Foundation, Inc., priority 1994, dated 1996).
Values joined by “and” are separate entries in the source; they are usually repeats but may differ in a detail not shown here. Identical values can stand only once.

Key:
phytate phosphorus = test: phytate (IP4, IP5, IP6) in feces, ferric chloride and HPLC procedures; assay type: in vivo, chicken (Petersen X Arbor Acre cockerels)
tibial dyschondroplasia = settings: chickens, dietary level; cited from earlier work
bone ash = bone ash of left tibia (Example 1); settings: in words
Description: The left tibia was removed for bone ash determination on the fat-free bone.

[1] = test system: phosphorus deficient rickets; test: phosphorus deficient rickets (Example 1); settings: in words, Exp 1
Description: The birds were also scored for phosphorus deficient rickets at the same time they were scored for tibial dyschondroplasia. Chickens which had normal proliferating prehypertrophied zone and a lengthened metaphyseal primary spongiosa were classified as phosphorus deficient rickets.
Ri is an abbreviation for rickets incidence.

[2] = blood plasma total calcium and dialyzable phosphorus; settings: in words, Exp 1
Protocol: (§1) Ten newly hatched birds were randomly placed in each section of the Petersime batteries until the birds were nine days old. The measurements described below were calculated on a pen basis; all statistical analyses were conducted on pen averages. Blood samples were taken by cardiac puncture with heparinized syringes from one randomly chosen bird from each pen on the ninth day before weighing the birds.

[3] = 9-day body weight, feed consumption and gain:feed (Example 1); settings: in words
Protocol: Newly hatched Petersen X Arbor Acre cockerels obtained from a commercial hatchery were used. Animals were housed in electrically heated Petersime battery brooders with wire-mesh floors located in a room in which the temperature was maintained at 22° C., fluorescent lights were on 24 hours each day in the room and the cages, and sunlight was present during the day from large windows. No attempt was made to limit the natural production of vitamin D3. Feed and water were available to the chickens at all times.
as §1
At nine days of age, pen body weights were obtained for all birds and their feed consumption was recorded. […] Briefly, using a three week old chicken as the reference animal, a score of zero indicates normal cartilage which is narrow with little irregularities. […] Deep irregularities are apparent. A score of three indicates a large mass of cartilage in the proximal end of the tibia. The birds were also scored for phosphorus deficient rickets at the same time they were scored for tibial dyschondroplasia. Chickens which had normal proliferating prehypertrophied zone and a lengthened metaphyseal primary spongiosa were classified as phosphorus deficient rickets. The left tibia was removed for bone ash determination on the fat-free bone.

[4] = test system: conversion of 25(OH)D3 to 1,25(OH)2 D3; settings: chickens made acidotic; cited from earlier work

Structure (SMILES)	Feces excreted (phytate phosphorus; in vivo)	IP5 excretion, percent of total phytin phosphorus (phytate phosphorus; in vivo)	IP6 excretion, percent of total phytin phosphorus (phytate phosphorus; in vivo)	IP6 phytate phosphorus in feces by HPLC (phytate phosphorus; in vivo)	Phytate phosphorus retention, FeCl3 (phytate phosphorus; in vivo)	Phytate phosphorus retention, HPLC (phytate phosphorus; in vivo)	Phytin phosphorus retained (100 - total excreted) (phytate phosphorus; in vivo)	Total phytate phosphorus in feces by HPLC (phytate phosphorus; in vivo)	Total phytin phosphorus excreted (phytate phosphorus; in vivo)	amount of phosphorus in the feces (phytate phosphorus; in words, Exp 1)	tibial dyschondroplasia (effect of dietary factor) (tibial dyschondroplasia)	bone ash (bone ash)	incidence of phosphorus-deficient rickets [1]	blood plasma phosphorus [2]	nine day weight ([3]; Example 1)	gain:feed ratio ([3]; Exp 1)	conversion of 25(OH)D3 to 1,25(OH)2 D3 [4]
O.O=P([O-])([O-])O.[Na+].[Na+] [P, Na2 HPO4 H2 O]	451 and 602 and 606	5.76% and 2.70% and 6.87%	46.92% and 37.06% and 46.00%	3.99 mg/g and 3.03 mg/g and 3.68 mg/g	47 and 68 and 51	47 and 60 and 46	46.7% and 59.5% and 45.9%	4.54 mg/g and 3.32 mg/g and 4.35 mg/g	53.4% and 40.6% and 54.4%	approximately the same	accentuate the development of the lesions	increased	decreased	increased	increased nine day weights	increased	–
Cl.N [ammonium chloride]	–	–	–	–	–	–	–	–	–	–	–	–	–	–	–	–	reduced conversion
